Molecular target: T1, MLLT1 (Homo sapiens, UniProt Q03111)
T1 construct: host or cells: MV4-11
T1 sequence (Q03111 1-559): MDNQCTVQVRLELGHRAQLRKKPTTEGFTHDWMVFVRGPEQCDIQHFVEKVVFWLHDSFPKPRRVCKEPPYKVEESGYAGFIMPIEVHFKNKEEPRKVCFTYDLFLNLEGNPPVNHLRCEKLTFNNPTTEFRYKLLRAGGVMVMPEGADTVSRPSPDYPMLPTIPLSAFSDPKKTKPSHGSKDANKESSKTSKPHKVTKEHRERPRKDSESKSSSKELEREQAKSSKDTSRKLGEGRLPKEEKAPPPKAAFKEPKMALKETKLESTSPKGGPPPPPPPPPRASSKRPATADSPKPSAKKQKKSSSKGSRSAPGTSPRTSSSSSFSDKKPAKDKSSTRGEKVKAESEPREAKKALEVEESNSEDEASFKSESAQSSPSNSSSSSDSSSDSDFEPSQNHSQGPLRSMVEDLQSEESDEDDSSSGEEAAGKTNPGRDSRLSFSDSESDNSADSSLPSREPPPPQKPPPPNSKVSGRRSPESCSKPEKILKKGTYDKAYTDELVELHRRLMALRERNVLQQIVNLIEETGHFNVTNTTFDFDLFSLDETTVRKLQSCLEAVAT
Assay: MLLT1 degradation assay in MV4-11 cells (JESS chemiluminescent detection), three concentrations, 24 h
Format: cell-based
Conditions: with respect to DMSO control
Method: MLLT1 degradation efficacy of compounds were tested in an automated chemiluminescent detection system (JESS, Cat #004-650). […] 10 mM DMSO stocks were prepared, and cells were treated with three concentrations of test compounds viz. 1000, 100 and 10 nM at a final DMSO concentration of 0.1% and incubated for 24 h at 37° C., 5% CO2. […] Post run, data were analysed using “Compass for SW” software for chemiluminescent detection. The peak area for each band was used for the calculation of MLLT1 degradation with respect to DMSO control. Data is shown as “MLLT1% degradation”.

| SMILES | MLLT1% Degradation @ 0.01 μM | MLLT1% Degradation @ 0.1 μM | MLLT1% Degradation @ 1 μM |
| --- | --- | --- | --- |
| CCN1CCC[C@@H]1c1cc2cnc(NC(=O)c3ccc(N4CCC(CC#Cc5cccc6c5CN(C5CCC(=O)NC5=O)C6=O)CC4)nc3)cc2[nH]1 (stereo partly drawn) [Example 73, 6-(4-(3-(2-(2,6-dioxopiperidin-3-yl)-1-oxoisoindolin-4-yl)prop-2-yn-1-yl)piperidin-1-yl)-N-(2-((R)-1-ethylpyrrolidin-2-yl)-1H-pyrrolo[3,2-c]pyridin-6-yl)nicotinamide] | B (Category B: 50% ≤ B < 75% degradation) | A (Category A: A ≥ 75% degradation) | B (Category B: 50% ≤ B < 75% degradation) |
| CN1CCC[C@@H]1c1[nH]c2cc(NC(=O)c3ccc(N4CCN(CC#Cc5cccc6c5CN(C5CCC(=O)NC5=O)C6=O)CC4)nc3)ncc2c1Cl (stereo partly drawn) [Example 72, N-(3-chloro-2-((R)-1-methylpyrrolidin-2-yl)-1H-pyrrolo[3,2-c]pyridin-6-yl)-6-(4-(3-(2-(2,6-dioxopiperidin-3-yl)-1-oxoisoindolin-4-yl)prop-2-yn-1-yl)piperazin-1-yl)nicotinamide] | A (Category A: A ≥ 75% degradation) | A (Category A: A ≥ 75% degradation) | C (Category C: 25% ≤ C < 50% degradation) |
| CN1CCC[C@@H]1c1cc2cnc(NC(=O)c3ccc(CCCC4CCN(c5cccc6c5CN(C5CCC(=O)NC5=O)C6=O)CC4)cc3)cc2[nH]1 (stereo in doubt) [Example 78, 4-(3-(1-(2-((rel-R)-2,6-dioxopiperidin-3-yl)-1-oxoisoindolin-4-yl)piperidin-4-yl)propyl)-N-(2-((R)-1-methylpyrrolidin-2-yl)-1H-pyrrolo[3,2-c]pyridin-6-yl)benzamide] | B (Category B: 50% ≤ B < 75% degradation) | A (Category A: A ≥ 75% degradation) | A (Category A: A ≥ 75% degradation) |
| CN1CCC[C@@H]1c1cc2cnc(NC(=O)c3ccc(-c4cnn(CCCC#Cc5cccc(C(=O)N[C@H]6CCC(=O)NC6=O)n5)c4)cc3)cc2[nH]1 [Example 62, N—((S)-2,6-dioxopiperidin-3-yl)-6-(5-(4-(4-((2-((R)-1-methylpyrrolidin-2-yl)-1H-pyrrolo[3,2-c]pyridin-6-yl)carbamoyl)phenyl)-1H-pyrazol-1-yl)pent-1-yn-1-yl) picolinamide] | B (Category B: 50% ≤ B < 75% degradation) | A (Category A: A ≥ 75% degradation) | B (Category B: 50% ≤ B < 75% degradation) |
| CN1CCC[C@@H]1c1cc2cnc(NC(=O)c3ccc(C4CCN(c5cccc6c5C(=O)N(C5CCC(=O)NC5=O)C6=O)CC4)cc3)cc2[nH]1 (stereo partly drawn) [Example 15, 4-(1-(2-(2,6-dioxopiperidin-3-yl)-1,3-dioxoisoindolin-4-yl)piperidin-4-yl)-N-(2-((R)-1-methylpyrrolidin-2-yl)-1H-pyrrolo[3,2-c]pyridin-6-yl)benzamide] | B (Category B: 50% ≤ B < 75% degradation) | A (Category A: A ≥ 75% degradation) | B (Category B: 50% ≤ B < 75% degradation) |
| CN1CCC[C@@H]1c1cc2cnc(NC(=O)c3ccc(OC4CN(CCC5CCN(c6ccc7c(c6)C(=O)N(C6CCC(=O)NC6=O)C7=O)CC5)C4)cc3)cc2[nH]1 (stereo partly drawn) [Example 227, 4-((1-(2-(1-(2-(2,6-dioxopiperidin-3-yl)-1,3-dioxoisoindolin-5-yl)piperidin-4-yl)ethyl)azetidin-3-yl)oxy)-N-(2-((R)-1-methylpyrrolidin-2-yl)-1H-pyrrolo[3,2-c]pyridin-6-yl)benzamide] | D (Category D: D < 25% degradation) | C (Category C: 25% ≤ C < 50% degradation) | C (Category C: 25% ≤ C < 50% degradation) |
| CN1CCC[C@@H]1c1cc2cnc(NC(=O)c3ccc(CCCCC#Cc4ccc5c(c4)CN(C4CCC(=O)NC4=O)C5=O)cc3F)cc2[nH]1 (stereo partly drawn) [Example 223, 4-(6-(2-(2,6-dioxopiperidin-3-yl)-1-oxoisoindolin-5-yl)hex-5-yn-1-yl)-2-fluoro-N-(2-((R)-1-methylpyrrolidin-2-yl)-1H-pyrrolo[3,2-c]pyridin-6-yl)benzamide] | D (Category D: D < 25% degradation) | C (Category C: 25% ≤ C < 50% degradation) | D (Category D: D < 25% degradation) |
| CN1CCC[C@@H]1c1cc2cnc(NC(=O)c3ccc(N4CC[C@H](CC#Cc5cccc6c5CN(C5CCC(=O)NC5=O)C6=O)C4)nc3)cc2[nH]1 (stereo partly drawn) [Example 187, 6-((3S)-3-(3-(2-(2,6-dioxopiperidin-3-yl)-1-oxoisoindolin-4-yl)prop-2-yn-1-yl)pyrrolidin-1-yl)-N-(2-((R)-1-methylpyrrolidin-2-yl)-1H-pyrrolo[3,2-c]pyridin-6-yl)nicotinamide] | B (Category B: 50% ≤ B < 75% degradation) | B (Category B: 50% ≤ B < 75% degradation) | B (Category B: 50% ≤ B < 75% degradation) |
| CN1CCC[C@@H]1c1cc2cnc(NC(=O)CCCC3CCCN(c4cccc5c4C(=O)N(C4CCC(=O)NC4=O)C5=O)C3)cc2[nH]1 (stereo partly drawn) [Example 44, 4-(1-(2-(2,6-dioxopiperidin-3-yl)-1,3-dioxoisoindolin-4-yl)piperidin-3-yl)-N-(2-((R)-1-methylpyrrolidin-2-yl)-1H-pyrrolo[3,2-c]pyridin-6-yl)butanamide] | – | C (Category C: 25% ≤ C < 50% degradation) | C (Category C: 25% ≤ C < 50% degradation) |
| CN1CCC[C@@H]1c1cc2cnc(NC(=O)c3ccc(OCCC4CCN(c5cccc6c5C(=O)N(C5CCC(=O)NC5=O)C6=O)CC4)cc3F)cc2[nH]1 (stereo partly drawn) [Example 217, 4-(2-(1-(2-(2,6-dioxopiperidin-3-yl)-1,3-dioxoisoindolin-4-yl)piperidin-4-yl)ethoxy)-2-fluoro-N-(2-((R)-1-methylpyrrolidin-2-yl)-1H-pyrrolo[3,2-c]pyridin-6-yl)benzamide] | C (Category C: 25% ≤ C < 50% degradation) | A (Category A: A ≥ 75% degradation) | A (Category A: A ≥ 75% degradation) |
| CN1CCC[C@@H]1c1cc2cnc(NC(=O)c3ccc(N4CCN(CC5CCN(c6ccc7c(c6)C(=O)N(C6CCC(=O)NC6=O)C7=O)CC5)CC4)cc3)cc2[nH]1 (stereo partly drawn) [Example 221, 4-(4-((1-(2-(2,6-dioxopiperidin-3-yl)-1,3-dioxoisoindolin-5-yl)piperidin-4-yl)methyl)piperazin-1-yl)-N-(2-((R)-1-methylpyrrolidin-2-yl)-1H-pyrrolo[3,2-c]pyridin-6-yl)benzamide] | C (Category C: 25% ≤ C < 50% degradation) | B (Category B: 50% ≤ B < 75% degradation) | B (Category B: 50% ≤ B < 75% degradation) |
| CN1CCC[C@@H]1c1cc2cnc(NC(=O)c3ccc(CCCC#Cc4ccc(C(=O)N[C@H]5CCC(=O)NC5=O)nc4)cc3)cc2[nH]1 [Example 11, N—((S)-2,6-dioxopiperidin-3-yl)-5-(5-(4-((2-((R)-1-methylpyrrolidin-2-yl)-1H-pyrrolo[3,2-c]pyridin-6-yl)carbamoyl)phenyl)pent-1-yn-1-yl)picolinamide] | D (Category D: D < 25% degradation) | C (Category C: 25% ≤ C < 50% degradation) | B (Category B: 50% ≤ B < 75% degradation) |
| CN1CCC[C@@H]1c1cc2cnc(NC(=O)c3ccc(OCCC4CCN(c5ccc(C(=O)N[C@H]6CCC(=O)NC6=O)c(F)c5)CC4)cc3F)cc2[nH]1 [Example 215, N—((S)-2,6-dioxopiperidin-3-yl)-2-fluoro-4-(4-(2-(3-fluoro-4-((2-((R)-1-methylpyrrolidin-2-yl)-1H-pyrrolo[3,2-c]pyridin-6-yl)carbamoyl)phenoxy)ethyl)piperidin-1-yl)benzamide] | D (Category D: D < 25% degradation) | C (Category C: 25% ≤ C < 50% degradation) | C (Category C: 25% ≤ C < 50% degradation) |

— patent publication US20260191968A1, “PROTAC DEGRADERS OF MLLT1 AND/OR MLLT3” (DARK BLUE THERAPEUTICS LTD, priority 2024, published 2026)
